Literature values as cited in patent CN110812364A, “半乳寡糖及其衍生物在作为SGLTs抑制剂中的应用” (Ocean University of China, priority 2019, dated 2020).

Target: T1, SGLT2 (Homo sapiens, UniProt P31639)
T1 sequence (P31639 1-672): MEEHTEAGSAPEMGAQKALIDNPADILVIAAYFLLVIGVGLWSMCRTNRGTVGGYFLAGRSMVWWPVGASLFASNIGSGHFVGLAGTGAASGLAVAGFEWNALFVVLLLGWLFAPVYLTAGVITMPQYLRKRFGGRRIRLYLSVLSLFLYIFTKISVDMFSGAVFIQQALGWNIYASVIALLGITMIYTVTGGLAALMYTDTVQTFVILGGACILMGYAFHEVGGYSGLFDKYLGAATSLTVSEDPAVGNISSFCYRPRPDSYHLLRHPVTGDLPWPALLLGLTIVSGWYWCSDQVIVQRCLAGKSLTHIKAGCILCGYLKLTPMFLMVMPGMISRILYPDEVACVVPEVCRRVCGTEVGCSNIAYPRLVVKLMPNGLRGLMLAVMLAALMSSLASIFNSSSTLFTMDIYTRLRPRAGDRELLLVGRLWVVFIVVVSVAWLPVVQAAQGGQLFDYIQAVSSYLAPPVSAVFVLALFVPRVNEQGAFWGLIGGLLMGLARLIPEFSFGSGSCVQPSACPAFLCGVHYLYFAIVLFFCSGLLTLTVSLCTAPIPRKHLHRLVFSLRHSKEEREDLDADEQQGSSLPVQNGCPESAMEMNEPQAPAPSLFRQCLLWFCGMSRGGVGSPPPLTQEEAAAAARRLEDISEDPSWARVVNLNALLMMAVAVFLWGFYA
Conditions: dual inhibitor of SGLT1 and SGLT2, background section

selectivity for SGLT1 and SGLT2: 选择性较差
Structure (SMILES): O=C(CCc1ccc(O)cc1)c1c(O)cc(O)cc1O[C@@H]1O[C@H](CO)[C@@H](O)[C@H](O)[C@H]1O [根皮苷, 根皮苷(phloridzin)]
